Measured values as given in patent US20090227521A1, “USE OF COMPOUNDS IN THE TREATMENT OF ISCHEMIA AND NEURODEGENERATION” (priority 2006, published 2009).
Values joined by “and” are separate entries in the source; they are usually repeats but may differ in a detail not shown here. Identical values can stand only once. *: point of attachment. Cbz = O=C(OCc1ccccc1)*

Key:
EL-4 cells [1] = assay: Western blotting of TPPII, proteasome alpha-3 and p53 in stressed EL-4 cells; type: cell-based, mouse
From the text: (§1) Cells and Culture Conditions. EL-4 is a Benzpyrene-induced lymphoma cell line derived from the C57BI/6 mouse strain. EL-4.wt and EL-4.TPPII^i are EL-4 cells transfected with the pSUPER vector (Brummelkamp, T R, Bernards, R, Agami, R. A system for stable expression of short interfering RNAs in mammalian cells. Science 2002; 296:550-3), empty versus containing the siRNA directed against TPPII. HeLa cells are human cervical carcinoma cells. For induction of stress, cells were starved by growth in 50%-75% Phosphate Buffered Saline (PBS) or gamma-irradiated 250-2000 Rad's; and incubated at 37° C. and 5.3% CO2. Our flow cytometric data represent live cells as determined by flow cytometric gating with Propidium Iodide (PI). For generation of stable transfectants, 5×10^6 cells were washed in PBS, then resuspended into 500 micro-I of PBS in a Bio-Rad gene-pulser and pulsed with 10 micro-g DNA and 250 V at 960 micro-F; and selected by resistance to G418. UbGV76-GFP is a ubiquitin-fusion construct that creates a rapidly degraded GFP molecule for monitoring 26S proteasome activity in live cells through flow cytometry (Dantuma, N. P, Lindsten, K., Glas, R., Jellne, M., and Masucci, M. G. 2000. Short-lived green fluorescent proteins for quantifying ubiquitin/proteasome-dependent proteolysis in living cells. Nat. Biotechnol. 18:538-43). Ub-R-GFP is a similar vector that also encodes a highly unstable GFP molecule degraded through the ubiquitin-proteasome pathway. […]
Protein Purification, Peptidase Assays and Analysis of DNA Fragmentation. […] Cleavage activity was measured by emission at 460 nm in a LS50B Luminescence Spectrometer (Perkin Elmer, Boston, Mass.). […]
Antibodies and Antisera. The following molecules were detected by the antibodies specified: GFP by rabbit anti-GFP serum (Molecular Probes Europe, Breda, The Netherlands); 19S proteasomal complexes by anti-Rpt6 (19S base ATPase subunit), 20S proteasomal complexes by (Affinity, Exeter, UK); For detection of TPPII we used chicken anti-TPPII serum (Immunsystem, Uppsala, Sweden). […]

Subtilisin = details: bacterial homologue of eukaryotic TPP II; cited from earlier work
TPP II = target: T1, TPP II (Mus musculus, UniProt Q64514); assay: Inhibition of cleavage of AAF-AMC by enriched TPP II (peptidase assay); type: biochemical; details: for cleavage of AAF-AMC, mean: mean of three
T1 construct: 1 ug of high molecular weight protein was used as enzyme in peptidase assays; endogenous in cells
T1 sequence (Q64514 2-1262 limits assumed): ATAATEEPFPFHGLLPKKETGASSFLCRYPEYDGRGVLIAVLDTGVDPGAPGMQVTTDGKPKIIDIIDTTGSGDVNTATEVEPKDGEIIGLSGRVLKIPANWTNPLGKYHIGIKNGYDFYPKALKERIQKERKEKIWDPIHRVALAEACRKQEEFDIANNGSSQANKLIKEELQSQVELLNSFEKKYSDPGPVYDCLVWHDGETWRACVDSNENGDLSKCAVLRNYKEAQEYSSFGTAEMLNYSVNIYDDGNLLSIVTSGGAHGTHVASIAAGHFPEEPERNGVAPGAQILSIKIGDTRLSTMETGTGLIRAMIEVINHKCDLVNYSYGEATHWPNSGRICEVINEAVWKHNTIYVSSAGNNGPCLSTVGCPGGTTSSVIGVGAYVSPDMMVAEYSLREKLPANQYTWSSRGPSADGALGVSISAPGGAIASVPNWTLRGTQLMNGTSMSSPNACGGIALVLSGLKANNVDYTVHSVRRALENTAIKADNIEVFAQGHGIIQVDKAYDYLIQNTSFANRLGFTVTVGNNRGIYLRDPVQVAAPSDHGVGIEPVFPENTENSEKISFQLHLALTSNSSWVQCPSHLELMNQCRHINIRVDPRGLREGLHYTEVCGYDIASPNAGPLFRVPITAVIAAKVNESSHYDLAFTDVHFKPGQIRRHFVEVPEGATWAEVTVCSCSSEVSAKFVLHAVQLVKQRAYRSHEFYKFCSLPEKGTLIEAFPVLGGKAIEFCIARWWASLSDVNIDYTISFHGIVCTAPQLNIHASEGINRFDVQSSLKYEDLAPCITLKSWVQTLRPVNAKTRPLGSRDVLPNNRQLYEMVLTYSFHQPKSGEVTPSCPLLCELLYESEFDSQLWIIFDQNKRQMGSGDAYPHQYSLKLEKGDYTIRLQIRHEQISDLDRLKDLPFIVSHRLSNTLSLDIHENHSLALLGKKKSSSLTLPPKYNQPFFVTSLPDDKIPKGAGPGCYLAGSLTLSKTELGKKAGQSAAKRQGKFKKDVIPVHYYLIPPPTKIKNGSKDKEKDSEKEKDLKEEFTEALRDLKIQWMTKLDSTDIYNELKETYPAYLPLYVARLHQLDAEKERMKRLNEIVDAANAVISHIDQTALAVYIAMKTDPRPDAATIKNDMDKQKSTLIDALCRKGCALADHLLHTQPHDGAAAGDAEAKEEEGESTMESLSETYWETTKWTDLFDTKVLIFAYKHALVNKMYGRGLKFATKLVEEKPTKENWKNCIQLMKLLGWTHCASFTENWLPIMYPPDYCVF
Experimental: It is not necessary to achieve a particularly high level of purification, and conventional simple techniques can be used to obtain TPP II of sufficient quality to use in a screening method. In one non-limiting example of purification of TPP II, 100×10^6 cells (such as EL-4 cells) were sedimented and lysed by vortexing in glass beads and homogenisation buffer (50 mM Tris Base pH 7.5, 250 mM Sucrose, 5 mM MgCl2, 1 mM DTT). Cellular lysates were subjected to differential centrifugation; first the cellular homogenate was centrifuged at 14,000 rpm for 15 min, and then the supernatant was transferred to ultra-centrifugation tubes. Next the sample was ultra-centrifugated at 100,000×g for 1 hour, and the supernatant (denoted as cytosol in most biochemical literature) was subjected to 100,000×g centrifugation for 5 hours, which sedimented high molecular weight cytosolic proteins/protein complexes. The resulting pellet dissolved in 50 mM Tris Base pH 7.5, 30% Glycerol, 5 mM MgCl2, and 1 mM DTT, and 1 ug of high molecular weight protein was used as enzyme in peptidase assays.
It is possible to test the activity of TPP II using for example the substrate AAF-AMC (Sigma, St. Louis, Mo.). This may for example be used at 100 uM concentration in 100 ul of test buffer composed of 50 mM Tri Base pH 7.5, 5 mM MgCl2 and 1 mM DTT. It is possible to stop reactions using dilution with 900 ul 1% SDS solution. Cleavage activity may be measured for example by emission at 460 nm in a LS50B Luminescence Spectrometer (Perkin Elmer, Boston, Mass.).
Protein Purification, Peptidase Assays and Analysis of DNA Fragmentation. 100×10^6 cells were sedimented and lysed by vortexing in glass beads and homogenisation buffer (50 mM Tris Base pH 7.5, 250 mM Sucrose, 5 mM MgCl2, 1 mM DTT). Cellular lysates were submitted to differential centrifugation where a supernatant from a 1 hour centrifugation at 100,000×g (cytosol) was submitted to 100,000×g centrifugation for 3-5 hours, which sedimented high molecular weight cytosolic proteins/protein complexes. The resulting pellet dissolved in 50 mM Tris Base pH 7.5, 30% Glycerol, 5 mM MgCl2, and 1 mM DTT, and 1 micro-g of high molecular weight protein was used as enzyme in peptidase assays or in Western blotting for TPP II expression. To test the activity of TPP II we used the substrate AAF-AMC (Sigma, St. Louis, Mo.), at 100 micro-M concentration in 100 micro-I of test buffer composed of 50 mM Tri Base pH 7.5, 5 mM MgCl2 and 1 mM DTT. Cleavage activity was measured by emission at 460 nm in a LS50B Luminescence Spectrometer (Perkin Elmer, Boston, Mass.). For analysis of DNA fragmentation cells were seeded in 12-well plates at 10^6 cells/ml and exposed to 25 micro-M etoposide, a DNA topoisomerase II inhibitor commonly used as an apoptosis-inducing agent, to starvation (50% PBS). Cells were seeded at 10^6 cells/ml in 12-well plates and incubated for the indicated times, usually 18-24 hours. DNA from EL-4 control and adapted cells was purified by standard chloroform extraction, and 2.5 micro-g of DNA was loaded on 1.8% agarose gel for detection of DNA from apoptotic cells.
TPP II protein was enriched, and then a TPP II-preferred fluorogenic substrate AAF-AMC was used. 100×10^6 cells were sedimented and lysed by vortexing in glass beads and homogenisation buffer (50 mM Tris Base pH 7.5, 250 mM Sucrose, 5 mM MgCl2, 1 mM DTT). Cellular lysates were subjected to differential centrifugation; first the cellular homogenate was centrifuged at 14,000 rpm for 15 min, and then the supernatant was transferred to ultra-centrifugation tubes. Next the sample was ultra-centrifugated at 100,000×g for 1 hour, and the supernatant (denoted as cytosol in most biochemical literature) was subjected to 100,000×g centrifugation for 5 hours, which sedimented high molecular weight cytosolic proteins/protein complexes. […]

EL-4.Ub-R-GFP-Q112 cells = assay: Ub-R-GFP-Q112 poly-Glutamine reporter substrate degradation in stably transfected EL-4 cells (flow cytometry); type: cell-based, mouse; details: for Ub-R-GFP-Q112 substrate level: up to 72 hours, serum-free AIM-V medium
From the text: Cells and Culture Conditions. EL-4 is a Benzpyrene-induced lymphoma cell line derived from the C57BI/6 mouse strain. EL-4.wt and EL-4.TPPII^i are EL-4 cells transfected with the pSUPER vector (Brummelkamp, T R, Bernards, R, Agami, R. A system for stable expression of short interfering RNAs in mammalian cells. Science 2002; 296:550-3), empty versus containing the siRNA directed against TPPII. HeLa cells are human cervical carcinoma cells. For induction of stress, cells were starved by growth in 50%-75% Phosphate Buffered Saline (PBS) or gamma-irradiated 250-2000 Rad's; and incubated at 37° C. and 5.3% CO2. Our flow cytometric data represent live cells as determined by flow cytometric gating with Propidium Iodide (PI). For generation of stable transfectants, 5×10^6 cells were washed in PBS, then resuspended into 500 micro-I of PBS in a Bio-Rad gene-pulser and pulsed with 10 micro-g DNA and 250 V at 960 micro-F; and selected by resistance to G418. UbGV76-GFP is a ubiquitin-fusion construct that creates a rapidly degraded GFP molecule for monitoring 26S proteasome activity in live cells through flow cytometry (Dantuma, N. P, Lindsten, K., Glas, R., Jellne, M., and Masucci, M. G. 2000. Short-lived green fluorescent proteins for quantifying ubiquitin/proteasome-dependent proteolysis in living cells. Nat. Biotechnol. 18:538-43). Ub-R-GFP is a similar vector that also encodes a highly unstable GFP molecule degraded through the ubiquitin-proteasome pathway. Ub-R-GFP-Q112 is the same substrate but contains an extended C-terminal with 112 glutamines (Verhoef, L. G., Lindsten, K., Masucci, M. G. and Dantuma, N. P. 2002. Aggregate formation inhibits proteasomal degradation of polyglutamine proteins. Hum Mol. Genet. 11:2689-700).
Flow Cytometry. Fluorescence was quantified by a FACScalibur. Flow cytometric cell sorting of live cells was performed by incubation of cells for 5 minutes with 2 micro-g/ml of Propidium Iodide (PI) and subsequent sorting into PI^+ and PI^− populations with a FACSvantage. […]

EL-4.Ub-R-GFP cells = assay: GFP reporter substrate fluorescence in EL-4.Ub-R-GFP cells (flow cytometry); type: cell-based, mouse; details: live cells, proteasomal inhibitor treatment
From the text: as §1, with “18:538-43).” for “18:538-43). Ub-R-GFP is a similar vector that also encodes a highly unstable GFP molecule degraded through the ubiquitin-proteasome pathway.”
(§2) Flow Cytometry. Fluorescence was quantified by a FACScalibur. […]

HeLa.UbGV76-GFP cells = assay: GFP reporter substrate fluorescence in HeLa.UbGV76-GFP cells (flow cytometry); type: cell-based, human; details: live cells, proteasomal inhibitor treatment
From the text: as §1, with “18:538-43).” for “18:538-43). Ub-R-GFP is a similar vector that also encodes a highly unstable GFP molecule degraded through the ubiquitin-proteasome pathway.”
as §2

HeLa cells = assay: Nuclear localization of proteasomes in starved HeLa cells (immunohistochemistry); type: cell-based, human; details: starvation, 100 micro-M
From the text: as §1, with “18:538-43).” for “18:538-43). Ub-R-GFP is a similar vector that also encodes a highly unstable GFP molecule degraded through the ubiquitin-proteasome pathway.”

EL-4 cells [2] = assay: Nuclear localization of proteasomes in starved EL-4 cells (immunohistochemistry); type: cell-based, mouse; details: starvation, 100 micro-M
From the text: as §1, with “18:538-43).” for “18:538-43). Ub-R-GFP is a similar vector that also encodes a highly unstable GFP molecule degraded through the ubiquitin-proteasome pathway.”

Q: What does the source list for Cbz-Gly-Leu-Ala-OH [Z-GLA-OH]?
A: TPPII expression (EL-4 cells [1]; gamma-irradiated (500 Rad) EL-4.wt cells, 25 micro-M): strong reduction; inhibition of Subtilisin (Subtilisin): inhibit; cleavage of AAF-AMC, single determination (TPP II; compound at 1 nM): 32.54 fluorometric units and 32.61 fluorometric units and 33.41 fluorometric units; cleavage of AAF-AMC, mean (TPP II; compound at 1 nM): 32.85 fluorometric units; cleavage of AAF-AMC, single determination (TPP II; compound at 10 nM): 21.74 fluorometric units and 21.93 fluorometric units and 24.44 fluorometric units; cleavage of AAF-AMC, mean (TPP II; compound at 10 nM): 22.70 fluorometric units; cleavage of AAF-AMC, single determination (TPP II; compound at 100 nM): 14.43 fluorometric units and 14.26 fluorometric units and 14.37 fluorometric units; cleavage of AAF-AMC, mean (TPP II; compound at 100 nM): 14.35 fluorometric units; cleavage of AAF-AMC, single determination (TPP II; compound at 1 uM): 11.43 fluorometric units and 11.9 fluorometric units and 11.46 fluorometric units; cleavage of AAF-AMC, mean (TPP II; compound at 1 uM): 11.60 fluorometric units; cleavage of AAF-AMC, single determination (TPP II; compound at 10 uM): 6.47 fluorometric units and 7.66 fluorometric units and 7.49 fluorometric units; cleavage of AAF-AMC, mean (TPP II; compound at 10 uM): 7.21 fluorometric units; cleavage of AAF-AMC, single determination (TPP II; compound at 100 uM, arbitrary but relative units, lower = more inhibition): 1.14 fluorometric units and 1.44 fluorometric units and 1.55 fluorometric units; cleavage of AAF-AMC, mean (TPP II; compound at 100 uM): 1.38 fluorometric units; Ub-R-GFP-Q112 substrate level (EL-4.Ub-R-GFP-Q112 cells; 25-microM): gradual decline

Q: Which “rapid TPPII down regulation during wortmannin treatment” value (EL-4 cells [1]; starved EL-4 cells, with 1 micro-M wortmannin) does the source give for CC(C)C[C@@H](/C=C/S(C)(=O)=O)NC(=O)[C@H](CC(C)C)NC(=O)[C@H](CC(C)C)NC(=O)Cc1cc(I)c(O)c([N+](=O)[O-])c1 [NLVS, 4-hydroxy-5-iodo-3-nitrophenylacetyl-Leu-Leu-Leu-vinyl sulphone] here?
A: prevented

Q: What about the “steady state levels of GFP-fluorescence” value (EL-4.Ub-R-GFP cells) of the same compound?
A: strong increase

Q: And the “accumulation of Ub-R-GFP-Q112 substrate not degraded” value (EL-4.Ub-R-GFP-Q112 cells; treatment with NLVS)?
A: further increased accumulation

Q: And the “steady state levels of GFP-fluorescence” value (HeLa.UbGV76-GFP cells)?
A: strong increase

Q: Which results are given for CCCCNC(=O)[C@@H]1Cc2ccccc2N1C(=O)[C@@H](N)CC [Butabindide]?
A: nuclear localization of proteasomes (HeLa cells): inhibited nuclear localization of proteasomes; stabilization of p53 (EL-4 cells [1]; gamma-irradiated (500 Rad) EL-4.wt cells, 100 micro-M from 2 hours before onset): prevent; nuclear localization of proteasomes (EL-4 cells [2]): inhibited nuclear localization of proteasomes; Ub-R-GFP-Q112 substrate level (EL-4.Ub-R-GFP-Q112 cells; 100 micro-M): gradual decline
